One assay has as its system HCV replicon genotype 1a. Nature of the assay: HCV replicon assay, genotype 1a (cell ELISA for NS3/4A). The conditions noted are these: Hepatitis C virus, 96 h, read-out: 1a IC50 (nM). The format is cell-based. As for the experimental part: (§1) Measurement of inhibition by compounds was performed using the HCV replicon system. Several different replicons encoding different HCV genotypes or mutations were used. In addition, potency measurements were made using different formats of the replicon assay, including different ways of measurements and different plating formats. See Jan M. Vrolijk et al., A replicons-based bioassay for the measurement of interferons in patients with chronic hepatitis C, 110 J. Virological Methods 201 (2003); Steven S. Carroll et al., Inhibition of Hepatitis C Virus RNA Replication by 2′-Modified Nucleoside Analogs, 278(14) J. Biological Chemistry 11979 (2003). However, the underlying principles are common to all of these determinations, and are outlined below.
(§2) Stable neomycin phosphotransferase encoding replicons-harboring cell lines were used, so all cell lines were maintained under G418 selection prior to the assay. Potency was determined using a cell ELISA assay with an antibody to the replicons encoded NS3/4a protease. See Caterina Trozzi et al., In Vitro Selection and Characterization of Hepatitis C Virus Serine Protease Variants Resistant to an Active-Site Peptide Inhibitor, 77(6) J. Virol. 3669 (2003). To initiate an assay, replicon cells were plated in the presence of a dilution series of test compound in the absence of G418. Typically, the assays were performed in a 96-well plate formate for manual operation, or a 384-well plate format for automated assay. Replicon cells and compound were incubated for 96 hours. At the end of the assay, cells were washed free of media and compound, and the cells were then lysed. RNA was quantified indirectly through detection of replicon-encoded NS3/4A protein levels, through an ELISA-based assay with an antibody specific for NS3/4A. IC50 determinations were calculated as a percentage of a DMSO control by fitting the data to a four-parameter fit function and the data obtained is provided in the table below.
(§3) Data for selected compounds of the present invention was obtained for genotypes 1a and 1b using this method and is provided in the table below: […]
(In antiviral work, replicon cells carry a viral genome segment that copies itself.)

Another assay deals with HCV replicon genotype 1b. As to the kind of experiment: HCV replicon assay, genotype 1b (cell ELISA for NS3/4A). The format is cell-based. The conditions noted are these: Hepatitis C virus, 96 h, read-out: 1b IC50 (nM). As for the experimental part: as §1, §2, §3

By IC50 is commonly meant the concentration needed to halve the response being measured. For `CNC(=O)c1c(-c2ccc(F)cc2)oc2cc(N(C)S(C)(=O)=O)c(-c3cnc(=O)n(-c4ccc5ccccc5c4)c3)cc12` [Compound 28, 2-(4-fluorophenyl)-N-methyl-6-(N-methylmethylsulfonamido)-5-(1-(naphthalen-2-yl)-2-oxo-1,2-dihydropyrimidin-5-yl)benzofuran-3-carboxamide], the IC50 in the assay with HCV replicon genotype 1a was 116 nM; with HCV replicon genotype 1b, 18 nM.

With `CNC(=O)c1c(-c2ccc(F)cc2)oc2cc(N(C)S(C)(=O)=O)c(-c3ccc(=O)n(-c4ccc(F)cc4)c3)cc12` [Compound 29, 2-(4-fluorophenyl)-5-(1-(4-fluorophenyl)-6-oxo-1,6-dihydropyridin-3-yl)-N-methyl-6-(N-methylmethylsulfonamido) benzofuran-3-carboxamide], the IC50 worked out at 110 nM with HCV replicon genotype 1a and 31.8 nM in the assay on HCV replicon genotype 1b.

`CNC(=O)c1c(-c2ccc(F)cc2)oc2cc(N(C)S(C)(=O)=O)c(-c3cc4n(c(=O)c3)CCn3c-4cc4c(F)cccc43)cc12` [Compound 30, 5-(12-fluoro-4-oxo-6,7-dihydro-4H-pyrido[2′,1′:3,4]pyrazino[1,2-a]indol-2-yl)-2-(4-fluorophenyl)-N-methyl-6-(N-methylmethylsulfonamido)benzofuran-3-carboxamide]: the IC50 with HCV replicon genotype 1a was 3.52 nM; with HCV replicon genotype 1b, 19 nM.

Take `CNC(=O)c1c(-c2ccc(F)cc2)oc2cc(N(C)S(C)(=O)=O)c(-c3cc4n(c(=O)n3)CCn3c-4cc4c(F)cccc43)cc12` [Compound 31, 5-(12-fluoro-4-oxo-6,7-dihydro-4H-pyrimido[6′,1′:3,4]pyrazino[1,2-a]indol-2-yl)-2-(4-fluorophenyl)-N-methyl-6-(N-methylmethylsulfonamido)benzofuran-3-carboxamide]: the IC50 with HCV replicon genotype 1a worked out at 3.48 nM; with HCV replicon genotype 1b, 6.95 nM.
